Source: PubChem BioAssay AID330 (DTP/NCI, 2004)
“And” between values parts separate entries of the source, which are not always exact repeats. Equal entries are not always repeated. Toxic doses and inconclusive results are not listed. How the source made its calls: active means survival T/C of 150% or more; inactive means T/C below 125% in these data. Square brackets hold non-standard residues; d marks the D form. Peptide text beside a SMILES is read from it. * marks the point of attachment. ξ: configuration not given here. Cbz = O=C(OCc1ccccc1)*; ξNva = CCCC(N)C(=O)O

Test system: P388 leukemia ip, CD2F1 mice, survival T/C
Test: NCI In Vivo Anticancer Drug Screen. Data for tumor model P388 Leukemia (intraperitoneal) in CD2F1 (CDF1) mice
Details: endpoint: median survival time, higher = longer survival
How it was run: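 Mice carrying the transplanted tumor received test compound or vehicle. Survival was recorded in each group, and the value is the treated-group measurement divided by that of the vehicle-treated control group.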

[1] = dose: 100.0 mg/kg/injection, schedule: Q01DX009 (ip), vehicle: saline with Tween-80
[2] = dose: 100.0 mg/kg/injection, schedule: Q04DX003 (ip), vehicle: saline with Tween-80
[3] = dose: 200.0 mg/kg/injection, schedule: Q04DX003 (ip), vehicle: saline with Tween-80
[4] = dose: 400.0 mg/kg/injection, schedule: Q04DX003 (ip), vehicle: saline with Tween-80
[5] = dose: 50.0 mg/kg/injection, schedule: Q01DX005 (ip), vehicle: Klucel (hydroxypropylcellulose) (HPC)
[6] = dose: 100.0 mg/kg/injection, schedule: Q01DX005 (ip), vehicle: Klucel (hydroxypropylcellulose) (HPC)
[7] = dose: 200.0 mg/kg/injection, schedule: Q01DX005 (ip), vehicle: Klucel (hydroxypropylcellulose) (HPC)
[8] = dose: 50.0 mg/kg/injection, schedule: Q01DX005 (ip), vehicle: saline with Tween-80
[9] = dose: 100.0 mg/kg/injection, schedule: Q01DX005 (ip), vehicle: saline with Tween-80
[10] = dose: 200.0 mg/kg/injection, schedule: Q01DX005 (ip), vehicle: saline with Tween-80

Measured: T/C

Cc1ccc2c(c1)=N/C(=N\c1nc(O)c(O)[nH]1)N=2
inactive: dose: 60.0 mg/kg/injection, schedule: Q01DX009 (ip), vehicle: saline with Tween-80 106 % of control | [1] 106 % of control | dose: 140.0 mg/kg/injection, schedule: Q01DX009 (ip), vehicle: saline with Tween-80 109 % of control | dose: 210.0 mg/kg/injection, schedule: Q01DX009 (ip), vehicle: saline with Tween-80 111 % of control

Cc1cccc(-n2c(C)nc3c(c(C)c(C)n3-c3ccccc3)c2=N)c1
inactive: dose: 6.25 mg/kg/injection, schedule: Q01DX005 (ip), vehicle: Klucel (hydroxypropylcellulose) (HPC) 97 % of control | dose: 12.5 mg/kg/injection, schedule: Q01DX005 (ip), vehicle: Klucel (hydroxypropylcellulose) (HPC) 100 % of control | dose: 25.0 mg/kg/injection, schedule: Q01DX005 (ip), vehicle: Klucel (hydroxypropylcellulose) (HPC) 99 % of control

CN(C)c1nc(N(C)C)n2nc(-c3ccccc3[N+](=O)[O-])nc2n1
inactive: [2] 104 % of control | [3] 96 % of control | [4] 95 % of control

O=C(O)CCCC/C=C/CCCCCCC1C=CCC1 (centres undefined)
inactive: dose: 100.0 mg/kg/injection, schedule: Q04DX003 (ip), vehicle: saline 93 % of control | dose: 200.0 mg/kg/injection, schedule: Q04DX003 (ip), vehicle: saline 98 % of control | dose: 400.0 mg/kg/injection, schedule: Q04DX003 (ip), vehicle: saline 91 % of control

CC1=CC(OC2CCCCO2)CC(C)(C)C1 (centres undefined)
inactive: dose: 50.0 mg/kg/injection, schedule: Q01DX009 (ip), vehicle: saline 100 % of control | dose: 100.0 mg/kg/injection, schedule: Q01DX009 (ip), vehicle: saline 99 % of control | dose: 200.0 mg/kg/injection, schedule: Q01DX009 (ip), vehicle: saline 101 % of control

CCCC(NC(=O)OCc1ccccc1)C(=O)NCC(=O)NCC(=O)OC (stereo not drawn) (Cbz-[ξNva]-Gly-Gly-OMe)
inactive: [5] 110 % of control | [6] 113 % of control | [7] 113 % of control

C[Si](C)(C)N=S1(=N[Si](C)(C)C)CCCC1
inactive: dose: 50.0 mg/kg/injection, schedule: Q01DX005 (ip), vehicle: olive oil, sesame oil, peanut oil 109 % of control | dose: 100.0 mg/kg/injection, schedule: Q01DX005 (ip), vehicle: olive oil, sesame oil, peanut oil 109 % of control | dose: 200.0 mg/kg/injection, schedule: Q01DX005 (ip), vehicle: olive oil, sesame oil, peanut oil 114 % of control

COC1(OC)C(C)C(C#N)(C#N)C1(OC)OC (centres undefined)
inactive: dose: 60.0 mg/kg/injection, schedule: Q01DX005 (ip), vehicle: Klucel (hydroxypropylcellulose) (HPC) 100 % of control | dose: 120.0 mg/kg/injection, schedule: Q01DX005 (ip), vehicle: Klucel (hydroxypropylcellulose) (HPC) 106 % of control

O=C1CCC(N2C(=O)c3ccccc3C2=O)C(=O)N1 (centres undefined)
inactive: dose: 50.0 mg/kg/injection, schedule: Q01DX009 (ip), vehicle: saline with Tween-80 100 % of control | [1] 92 % of control

Cc1ccc(NCCC2CCCN3CCCCC23)c2c(=O)c3ccccc3sc12 (centres undefined)
inactive: dose: 12.5 mg/kg/injection, schedule: Q01DX005 (ip), vehicle: distilled water + Tween-80 100 % of control | dose: 25.0 mg/kg/injection, schedule: Q01DX005 (ip), vehicle: distilled water + Tween-80 91 % of control

CC1=NS(C)(=O)=c2ccc(C)cc2=N1 (centres undefined)
inactive: dose: 50.0 mg/kg/injection, schedule: Q01DX005 (ip), vehicle: acetone 100 % of control | dose: 100.0 mg/kg/injection, schedule: Q01DX005 (ip), vehicle: acetone 100 % of control | dose: 200.0 mg/kg/injection, schedule: Q01DX005 (ip), vehicle: acetone 100 % of control

COCC[P+](c1ccccc1)(c1ccccc1)c1ccccc1
inactive: dose: 1.56 mg/kg/injection, schedule: Q01DX009 (ip), vehicle: water 103 % of control | dose: 3.13 mg/kg/injection, schedule: Q01DX009 (ip), vehicle: water 99 % of control and 109 % of control | dose: 6.25 mg/kg/injection, schedule: Q01DX009 (ip), vehicle: water 112 % of control and 123 % of control | dose: 12.5 mg/kg/injection, schedule: Q01DX009 (ip), vehicle: water 123 % of control | dose: 25.0 mg/kg/injection, schedule: Q01DX009 (ip), vehicle: water 105 % of control and 119 % of control | dose: 50.0 mg/kg/injection, schedule: Q01DX009 (ip), vehicle: water 116 % of control

C=CCN1C(=O)CCN(S(=O)(=O)c2ccc(-n3nc(C(=O)O)cc3C)cc2)C1=S
inactive: [8] 103 % of control | [9] 107 % of control | [10] 99 % of control

CC(=O)NCCN=Cc1ccccc1
inactive: [2] 100 % of control | [3] 100 % of control | [4] 100 % of control

CCOc1ccc(C2c3ccc(OC)cc3OC(C)(C)C2c2ccccc2)cc1[N+](=O)[O-] (centres undefined)
inactive: [5] 101 % of control | [6] 99 % of control | [7] 95 % of control

O=C1/C(=C\c2ccccc2O)Cc2ccccc21
inactive: [5] 107 % of control | [6] 103 % of control | [7] 91 % of control

COc1cccc2c1CCC(=O)C2C (centres undefined)
inactive: [5] 107 % of control | [6] 100 % of control | [7] 104 % of control

Cc1cccc(O)c1C(=O)OC(C)c1cccc2nc3c(C(=O)O)cccc3nc12 (centres undefined)
inactive: dose: 0.5 mg/kg/injection, schedule: Q01DX005 (ip), vehicle: DMSO 108 % of control | dose: 1.0 mg/kg/injection, schedule: Q01DX005 (ip), vehicle: DMSO 92 % of control | dose: 2.0 mg/kg/injection, schedule: Q01DX005 (ip), vehicle: DMSO 100 % of control | dose: 4.0 mg/kg/injection, schedule: Q01DX005 (ip), vehicle: Klucel (hydroxypropylcellulose) (HPC) 100 % of control | dose: 6.25 mg/kg/injection, schedule: Q01DX005 (ip), vehicle: DMSO 119 % of control | dose: 8.0 mg/kg/injection, schedule: Q01DX005 (ip), vehicle: Klucel (hydroxypropylcellulose) (HPC) 101 % of control | dose: 12.5 mg/kg/injection, schedule: Q01DX005 (ip), vehicle: DMSO 114 % of control | dose: 16.0 mg/kg/injection, schedule: Q01DX005 (ip), vehicle: Klucel (hydroxypropylcellulose) (HPC) 101 % of control | dose: 32.0 mg/kg/injection, schedule: Q01DX005 (ip), vehicle: Klucel (hydroxypropylcellulose) (HPC) 87 % of control

Fc1ccc(NC(=S)SCc2ccc3c(c2)OCO3)cc1
inactive: dose: 50.0 mg/kg/injection, schedule: Q01DX009 (ip), vehicle: suspension in saline 101 % of control | dose: 100.0 mg/kg/injection, schedule: Q01DX009 (ip), vehicle: suspension in saline 101 % of control | dose: 200.0 mg/kg/injection, schedule: Q01DX009 (ip), vehicle: suspension in saline 116 % of control

O=C1Nc2ccc(Cl)cc2C(c2ccccc2)=NC1O (centres undefined)
inactive: dose: 12.5 mg/kg/injection, schedule: Q01DX009 (ip), vehicle: Klucel (hydroxypropylcellulose) (HPC) 97 % of control | dose: 25.0 mg/kg/injection, schedule: Q01DX009 (ip), vehicle: Klucel (hydroxypropylcellulose) (HPC) 97 % of control | dose: 50.0 mg/kg/injection, schedule: Q01DX009 (ip), vehicle: Klucel (hydroxypropylcellulose) (HPC) 108 % of control | dose: 100.0 mg/kg/injection, schedule: Q01DX009 (ip), vehicle: Klucel (hydroxypropylcellulose) (HPC) 89 % of control | dose: 200.0 mg/kg/injection, schedule: Q01DX009 (ip), vehicle: Klucel (hydroxypropylcellulose) (HPC) 111 % of control | dose: 400.0 mg/kg/injection, schedule: Q01DX009 (ip), vehicle: Klucel (hydroxypropylcellulose) (HPC) 99 % of control

COC1=CC2CC(C#N)C2(OC)C=C1 (centres undefined)
inactive: dose: 60.0 mg/kg/injection, schedule: Q01DX005 (ip), vehicle: saline with Tween-80 97 % of control | dose: 120.0 mg/kg/injection, schedule: Q01DX005 (ip), vehicle: saline with Tween-80 99 % of control | dose: 240.0 mg/kg/injection, schedule: Q01DX005 (ip), vehicle: saline with Tween-80 98 % of control

C/C(N=NC(=S)N1CCN(c2ccccc2)CC1)=C1\C=CC=CN1O
inactive: [8] 103 % of control | [9] 101 % of control | [10] 103 % of control

CCn1c2nc(=O)[nH]c(=O)c-2cc2ccccc21
inactive: dose: 45.0 mg/kg/injection, schedule: Q01DX009 (ip), vehicle: saline with Tween-80 113 % of control | dose: 90.0 mg/kg/injection, schedule: Q01DX009 (ip), vehicle: saline with Tween-80 103 % of control | dose: 180.0 mg/kg/injection, schedule: Q01DX009 (ip), vehicle: saline with Tween-80 101 % of control
